From US20090203644A1, “Compositions for treating and/or preventing diseases characterized by the presence of metal ions” (GrenPharma LLC, priority 2004, published 2009)
“Also recorded” adds a separate entry of the source. Read-outs that look alike come from different tables or passages of the source.

Legend:
[1] = Permeation of Transwell membranes alone (wells without cells)
[2] = system: Caco-2 cells
[3] = system: MDCK cells
[4] = in vivo; cited from earlier work
[5] = system: A-beta peptide; design: species or system human
[6] = 20 mM in 25 mM or 100 mM MOPS, pH 7.1
[7] = system: A-beta antigen; design: species or system human
[8] = target: A-beta peptide fragment (Homo sapiens, UniProt P05067); assay: CD helix-coil reversal and pretreatment experiments (Example 11); type: biochemical
Sequence of A-beta peptide fragment (P05067 672-713): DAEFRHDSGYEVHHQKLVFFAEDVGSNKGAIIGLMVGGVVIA

[9] = target: A-beta peptide (Homo sapiens, UniProt P05067); type: biochemical
Sequence of A-beta peptide (Homo sapiens, UniProt P05067) (P05067 672-713): as above

[10] = target: A-beta1-42 peptide (Homo sapiens, UniProt P05067); type: biochemical
Sequence of A-beta1-42 peptide (P05067 672-713): as above

[11] = system: human subject; settings: in vivo, po

With `OC[C@@H](O)[C@@H](O)[C@H](O)[C@H](O)CO` [mannitol, reference compound] the “Transwell Permeation Coeff. Mean ± SD, where applicable” value [1] was 3.6 ± 0.3 × 10^−5 cm/sec, the “Cell Permeation Coefficient (cm/sec) Caco-2” value ([2]; human, Caco-2, 60 min) was 2.6e-06 cm/s and the “Permeation Coefficient (cm/sec) Mean ± SD, where applicable” value ([2]; human, Caco-2, 60 min, 20 mM) was 1.9 ± 1.9 × 10^−6 cm/sec. For the same compound, the “Total Permeation Coefficient (cm/sec) Mean ± SD, where applicable, Caco-2” value ([2]; human, Caco-2, 60 min, 20 mM) was 1.9 ± 1.9 × 10^−6 cm/sec, the “Cell Permeation Coefficient (cm/sec) MDCK” value ([3]; dog, 60 min) was 1.4e-06 cm/s and the “Total Permeation Coefficient (cm/sec) Mean ± SD, where applicable, MDCK” value ([3]; dog, 60 min, 20 mM) was 1.3 ± 1.0 × 10^−6 cm/sec.

For `O=C(O)CN(CCN(CC(=O)O)CC(=O)O)CC(=O)O` [EDTA, ethylenediaminetetraacetic acid], the “time typical doses last in the body” value [4] is listed as “about 1 hour”.

In the case of `C[Si](Cl)(Cl)CC[Si](C)(Cl)Cl` [compound 1042, 1,2-(methyldichlorosilyl)ethane], the “amyloid extracted compared with MOPS / buffer controls” value [5] is reported as “more amyloid”, the “share of total antigen released to the extract” value [5] is reported as “approximately 6%” and the “total extracted” value [5] is reported as 17.2 fmol. The “time for which solutions were free of precipitate or colloidal suspensions / stable after preparation” value [6] was “at least 24 hours”, the “share of total antigen released to the extract” value [7] was “approximately 12%” and the “total extracted” value [7] was 14.0 fmol. The “recovery of helicity in Al-denatured peptide / reversal of aluminum-induced denaturation (CD)” value ([8]; TFE solution, Al(ClO4)3) was “recovery of helicity”, the “Cell Permeation Coefficient (cm/sec) Caco-2” value ([2]; Caco-2) was 6.7e-05 cm/s and the “Permeation Coefficient (cm/sec) Mean ± SD, where applicable” value ([2]; Caco-2) was 2.5e-05 cm/s. For the same compound, the “Total Permeation Coefficient (cm/sec) Mean ± SD, where applicable, Caco-2” value ([2]; Caco-2) was 1.9 ± 1.1 × 10^−5 cm/sec, the “cell permeation coefficient compared with mannitol, Caco-2” value ([2]; Caco-2) was “at least ten times greater” and the “crossing of the epithelial barrier in the Caco-2 model” value ([2]; Caco-2) was “cross the epithelial barrier relatively efficiently”. The “permeation across Caco-2 cells compared with mannitol” value ([2]; Caco-2) was “at least ten times greater”, the “Cell Permeation Coefficient (cm/sec) MDCK” value [3] was 5.6e-05 cm/s and the “Total Permeation Coefficient (cm/sec) Mean ± SD, where applicable, MDCK” value [3] was 1.8 ± 1.2 × 10^−5 cm/sec. For the same compound, the “cell permeation coefficient compared with mannitol, MDCK” value [3] was “at least ten times greater”, the “crossing of the epithelial barrier in the MDCK model” value [3] was “cross the epithelial barrier relatively efficiently” and the “permeation across MDCK cells compared with mannitol” value [3] was “at least ten times greater”.

With `C[Si](Cl)(Cl)CCC#N` [CEMS, 2-cyanoethylmethyldichlorosilane] the “total extracted” value [5] was 4.5 fmol, the “total extracted” value [7] was 1.4 fmol and the “protection from and/or reversal of metal-induced aggregation (DLS)” value [9] was “protection against Al^3+-induced aggregation”. The “protection against loss of helicity upon addition of Al(ClO4)3” value [8] was “protection against loss of helicity”, the “recovery of helical structure (CD)” value [8] was “recovery of helical structure” and the “recovery of helicity (CD)” value [8] was “recovery of helicity”. The “recovery of helicity in Al-denatured peptide / reversal of aluminum-induced denaturation (CD)” value [8] was “appeared to reverse aluminum-induced denaturation; also recorded: recovery of helicity”, the “Permeation Coefficient (cm/sec) Mean ± SD, where applicable” value ([2]; human, Caco-2) was 4.6e-06 cm/s and the “Total Permeation Coefficient (cm/sec) Mean ± SD, where applicable, Caco-2” value ([2]; human, Caco-2) was 4.6e-06 cm/s. The “amount of Al added until which helicity was preserved” value [10] was “about 1 equivalent”, the “protection of helical structure of A-beta1-42 against amyloid formation by aluminum (III)” value [10] was “protection of the helical structure” and the “Total Permeation Coefficient (cm/sec) Mean ± SD, where applicable, MDCK” value ([3]; dog) was 1.3e-06 cm/s.

For `C[Si](C)(Cl)CC[Si](C)(C)Cl`, the “effect on development of neurofibrillary tangles and senile plaques” value [11] was “interferes with further development of neurofibrillary tangles and senile plaques”.
